Test results reported in patent US11193114B2, “Immunogenic peptides for use in the prevention and/or treatment of infectious diseases, autoimmune diseases, immune responses to allofactors, allergic diseases, tumors, graft rejection and immune responses against viral vectors used for gene therapy or gene vaccination” (IMNATE SARL, priority 2010, dated 2021).

Assays:
[1] = tested on: Ad5 viral particles; assay: Anti-Ad5 IgG antibody response after peptide immunization and Ad5 injection (direct binding ELISA); assay type: in vivo, C57BL/6 mice; settings: four sc injections of 50 μg peptide in alum, then 2 IV Ad5 injections; serum 10 days after last Ad5 injection
Procedure: C57BL/6 mice (n=6) were immunized by four subcutaneous injections of 50 μg of peptide of SEQ ID NO: 2 in alum carried out at one-week interval.
Such peptide contains a CD1d-restricted NKT cell epitope of hex on protein of adenovirus (Ad5) and a thioreductase motif in flanking residues. A control group (n=6) of mice received physiological serum in alum instead of peptide. All mice then received 2 injections of 109 Ad5 viral particles by the IV route, separated by I week. Ten days after the last Ad5 injection, mice were bled and the concentration of total IgG antibodies to Ad5 particles was measured in a direct binding ELISA Briefly, Ad5 viral particles were insolubilized on polystyrene plates, followed by washing and incubation with a dilution of mouse serum. After a second washing, the binding of mouse anti-Ad5 antibodies was detected by addition of a goat antiserum to mouse IgG. […] Results are given in arbitrary units as means+SEM.

[2] = tested on: NOD mice; assay: Prevention of spontaneous insulin-dependent diabetes in NOD mice with GAD65 derived peptides; assay type: in vivo; settings: female NOD mice, 4 sc injections from the age of 4 weeks
Description: GAD65 contains amino acid sequences with the capacity to bind to CD1d. Thus, the sequence PQHTNVCFWFV (SEQ ID NO: 11), corresponding to amino acids 501 to 507 of GAD65, is produced by synthesis, as well as its counterpart encompassing a thioreductase motif within flanking residues: peptide of CHGCGGHTNVCFWFV (SEQ ID NO: 7) (with the thioreductase motif underlined and a linker of 2 glycines between the motif and the CD1d binding motif).
Female NOD mice are immunized from the age of 4 weeks by 4 subcutaneous injections of peptides of either SEQ ID7 or natural sequence, and glycaemia is followed in each of these groups, by comparison to a non-immunized group.

[3] = tested on: Factor VIII specific CD4+ T cells; assay: Activation (IL-4, IFN-gamma production) of Factor VIII specific CD4+ T cells from mice immunized with peptide, then injected with human factor VIII; assay type: in vivo, BALB/c Factor VIII KO mice; settings: mice immunized 4 times with 50 μg peptide vs control group without peptide; spleen CD4+ T cells restimulated in vitro
Procedure: BALB/c Factor VIII KO mice (group A) were immunized 4 times at 1 week interval with 50 μg of peptide 2196, which contains a CD1d-restricted NKT cell epitope and a C-XX-C (SEQ ID NO: 14) thioreductase motif within flanking residues (SEQ ID NO: 1).
Human factor VIII was then injected by the subcutaneous route using 10 IU per injection on 5 occasions separated by one week. Ten days after the last immunization the mice were sacrificed and spleen CD4+ T cells were prepared by magnetic cell sorting. Such cells were stimulated twice with the immunizing peptide and FVIII in vitro before assessing their activation state as measured by the production of IL-4 and IFN-gamma. […] The results (FIG. 1) show a 10-fold reduction of IL-4 production by Factor VIII specific CD4+ T cells obtained from mice immunized with the peptide as compared to the control group, and a 7-fold reduction in the production of IFN-gamma. Results are shown as means+SEM.

[4] = tested on: Der p I induced asthma in BALB/c mice; assay: Prevention of Der p I induced allergic asthma by peptide immunization; assay type: in vivo; settings: 4 injections of 50 μg peptide; Der p I nasal instillation 10 days after last immunization
Description: Allergens from the house dust mite, D. pteronyssinus, are frequently involved in allergic asthma. Der p I is the main allergen of D. pteronyssinus. The sequence of Der p I contains a CD1d binding motif corresponding to amino acid sequence 38 to 44. A peptide of sequence WAFSGVAATES (SEQ ID NO: 12) is produced by synthesis as well as its counterpart containing a thioreductase motif Thus, peptide of CGPCGGFSGVAATES (SEQ ID NO: 8) contains a thioreductase motif (underlined) and a linker of 2 glycines between the motif and the CD1d-binding motif.
Allergic asthma can be induced in BALB/c mice by nasal instillations of 100 μg Der p I administered on 3 consecutive days. Asthma is characterized by bronchial hyperreactivity and attraction of eosinophil infiltrates into the lung.
BALB/c mice are immunized by 4 injections of 50 μg of peptides of either SEQ ID8 or peptide in natural sequence as a control. Der p I is administered by nasal instillation 10 days after the last immunization.

[5] = tested on: EG7 tumor cells; assay: Apoptosis of EG7 tumor cells by CD4+ NKT cell lines from peptide-immunized mice (Annexin V / 7-AAD); assay type: cell-based, mouse (C57BL/6, H-2b); settings: EG7 cells cultured 18 h at ratio 1/1 with NKT cell lines from mice immunized with the peptide
Procedure: C57BL/6 mice (n=6) were immunized by four subcutaneous injections of 50 μg of peptide of SEQ ID NO: 3 in alum carried out at one-week interval.
Such peptide contains a CD1d-restricted NKT cell epitope derived from ovalbumin and a thioreductase motif in flanking residues. A control group (n=6) of mice received physiological serum in alum instead of peptide. Ten days after the last immunization the mice were sacrificed and spleen CD4+ T cells were prepared by magnetic cell sorting. Such cells were stimulated twice with the immunizing peptide in vitro before assessing their activation state as measured by the production of IL-4 and IFN-gamma.
CD4+ NKT cell lines were then assayed in vitro for their capacity to kill EG7 tumor cells. EG7 tumor cells (H-2b) are derived from a thymoma transduced with an ova construct. A CD1d restricted ova epitope is presented by such cells, which is known to be insufficient to trigger NKT activation and tumor cell killing.
EG7 cells were labeled at membrane level with 1 μM DiOC18 (3,3′ dioctadecycloxacarbocyanine perchlorate from Invitrogen). […] After 18 h, cells were harvested and stained for Annexin V and 7-AAD following manufacturer's instructions (Apoptosis Detection kit; BD Biosciences) and analysed on a FACSCantoll flow cytometer (BD Biosciences).

[6] = tested on: BALB/c-derived ALK+ tumor cell line (VAC); assay: Killing of VAC ALK+ tumor cells by NKT cells stimulated with ALK peptide (Annexin-V binding by FACS); assay type: cell-based, BALB/c mice; settings: VAC cells co-cultured with BALB/c NKT cells stimulated with the peptide; mean of triplicates
Procedure: Co-culture with a BALB/c-derived ALK+tumor cell line (VAC) was carried out as described above. Apoptosis of tumor cells was measured by evaluating Annexin-V binding by FACS.

[7] = tested on: R113 tumor cells; assay: Killing of R113 tumor cells by NKT cells stimulated with ALK peptide (Annexin V binding); assay type: cell-based, C57BL/6 mice; settings: 20 h co-culture with NKT cells stimulated with the peptide
Procedure: CD4 T cells (C57BL/6, H-2b background) obtained from the spleen of naive mice were stimulated four times with autologous dendritic cells loaded with a CD1d-restricted NKT cell epitope of ALK, to which a thioreductase motif of the C-XX-C (SEQ ID NO: 14) format was added within flanking residues. (Peptide of CHGCGGWLQIVTWWGPGS (SEQ ID NO: 5) (with thioreductase motif underlined and 2 glycines used as linker between the motif and the CD1d-restricted epitope)).
As NKT cells have per se a cytolytic activity, we included cells which were stimulated in parallel experiments by exposure to the same CD1d-restricted NKT epitope in natural sequence, without thioredox motif (WLQIVTWWGPGS) (SEQ ID NO: 9).
Ten days after the last stimulation, CD4 T cells were washed and added to cell culture microplates containing 104 Rl13 tum or cells at a 2 to 1 ratio (CD4 to tum or cells). Rl13 is a tumor B cell line obtained from C57BL/6 mice, which constitutively expresses ALK.
After 20 h of co-culture, Rl13 tumor cells were evaluated for Annexin V binding used as marker of cell apoptosis.

[8] = tested on: EAE (experimental autoimmune encephalomyelitis) in C57BL/6 mice; assay: Prevention of EAE by pre-immunization with MOG peptide; assay type: in vivo; settings: four sc immunizations (50 μg) before disease induction with MOG 35-55
Procedure: MOG contains a sequence which binds to CD1d and activates NKT cells. Thus, peptide of sequence PHFLRVPCWKI (SEQ ID NO: 10) is produced by synthesis and a thioreductase-containing peptide of sequence CHGCGGFLRVPCWKI (peptide of SEQ ID NO: 6, in which the thioreductase motif is underlined and a linker of 2 glycines between the motif and the CD1d-binding motif).
Groups of C57BL/6 mice are immunized four times subcutaneously (50 μg) with peptide of SEQ ID6 or, as a control, with peptide in natural sequence. Ten days after the last immunization, all mice, including a group of naive, non-immunized animals, are induced into disease by subcutaneous injection of 100 μg MOG 35-55 peptide/400 μg Mycobacterium butyricum in CFA and ip injection of 300 ng Bordetella pertussis in NaCl. At day +2, a second injection of B. pertussis is given.
Signs of EAE are followed over time.

Substance: CHG CGG FIGLMYY (CHGCGGFIGLMYY) [SEQ ID NO: 2]
- total IgG antibodies to Ad5 particles [1]: did not produce significant amounts of antibodies

Substance: PQHTNVCFWFV [SEQ ID NO: 11, reference compound]
- glycaemia [2]: develop hyperglycaemia starting after the 14th week

Substance: CGH CGG FTN MFA TWS PSK (CGHCGGFTNMFATWSPSK) [peptide 2196]
- reduction in the production of IFN-gamma by Factor VIII specific CD4+ T cells [3]: 7 fold
- reduction of IL-4 production by Factor VIII specific CD4+ T cells [3]: 10 fold

Substance: CHGCGGHTNVCFWFV [SEQ ID7]
- glycaemia [2]: prevented from hyperglycaemia

Substance: CGPCGGFSGVAATES [SEQ ID8]
- airway reactivity to inhalation of methacholine [4]: do not develop airway reactivity to inhalation of methacholine
- lung infiltration with eosinophils [4]: do not show lung infiltration with eosinophils

Substance: CGH CGG FDKLPGF (CGHCGGFDKLPGF) [SEQ ID3]
- apoptosis of EG7 tumor cells [5]: are induced into apoptosis

Substance: CHGCGGWLQIVTWWGPGS [peptide of sequence 1]
- tumor cell death (Annexin-V binding) [6]: 25%
- increase in tumor cell death as compared to tumor cells cultured alone [7]: 4.5 fold
- tumor cell death (Annexin V binding) ([7]; 2 to 1 ratio, mean of triplicates): 18%

Substance: CHGCGGFLRVPCWKI [SEQ ID6, thioreductase-containing MOG peptide]
- signs of EAE [8]: do not develop EAE
